Source: patent publication US20250186423A1, “METHODS OF TREATING CANCER AND OTHER CONDITIONS WITH A MU OPIOID RECEPTOR ANTAGONIST” (priority 2022, published 2025)

Key:
[1] = tested on: Human umbilical vein endothelial cells (HUVEC); test: HUVEC cell tube formation; type: cell-based; details: 0-1000 nM, 18 hours, absence of exogenous opioids
Experimental: Two independent model systems were used to explore the role of MOR and endogenous opioids on angiogenesis. Human umbilical vein endothelial cells (HUVEC) in culture initiate angiogenesis through tube formation when cultured on an appropriate extracellular matrix. In a living system, the chicken egg chorioallantoic membrane assay (CAM) allows direct visualization of new blood vessel formation.
Specifically, the HUVEC cell tube formation was assessed in the presence of various doses (0-1000 nM) of three different Mu opioid receptor antagonists (axelopran, naloxegol, and methylnaltrexone (MNTX)). For this testing, the HUVEC cells were exposed to the various MOR antagonist concentrations and incubated under the following conditions: Briefly, 50 μL of Matrigel in 96 well plates was loaded to make one layer of extracellular matrix. The plate was kept for 1 hour at 37° C. HUVEC cells were seeded on top of Matrigel (0.02×10^6 cells/well) and waited for 4 h to form tube formation. […] Once tubes formed, cells were treated with increasing amounts of the test compounds (axelopran, naloxegol, and MNTX) and incubated for 18 hours. Cells were stained with Calcein AM and images were captured. The data analysis was performed using NIH imageJ software. Tube length was measure and data was plotted using prism software.

[2] = tested on: human microvascular endothelial cells; details: Feng et al. BMC Anesthesiol (2021); cited from earlier work
[3] = tested on: MDA-MB-231 tumor cell line; test: Breast cancer tumor progression in the CAM assay; type: in vivo, chicken; details: 5 days of growth in the upper CAM; axelopran 1.0 mg/kg, pembrolizumab 2.5 mg/kg, bevacizumab 4 mg/kg
Experimental: The chicken egg chorioallantoic membrane assay (FIG. 3B) allows for the study of tumor progression of injected tumor cells in the presence of active endogenous immune surveillance, but again in the absence of an active gut microbiome.
Breast cancer cell tumor progression was assessed in the chicken egg, chorioallantoic membrane assay. The experimental timing is shown below in FIG. 9. Fertilized chicken eggs were incubated for 9 days. The MDA-MB-231 tumor cell line was cultivated in D-MEM medium supplemented with 10% FBS and 1% penicillin/streptomycin. On day E9, cells were detached with trypsin, washed with complete medium and suspended in graft medium. An inoculum of 1×10^6 cells was added onto the CAM of each egg (E9) and then eggs were randomized into groups. Tumor cells (breast cancer MDA-MB231 cells (10^6)) were then seeded on the upper CAM and further incubated for 3 three days. Test agents were then added to the same site at selected concentrations. Following five days of further incubation the growing tumor was excised, freed of CAM tissue, and weighed.
For this testing, the chicken eggs were treated with: axelopran; pembrolizumab (Pembro); axelopran+pembrolizumab; bevacizumab (Beva); axelopran+bevacizumab; pembrolizumab+bevacizumab; and axelopran+pembrolizumab+bevacizumab. Axelopran was used at dose of 1.0 mg/kg; pembrolizumab was used at a dose of 2.5 mg/kg; and bevacizumab was used at a dose of 4 mg/kg. The results of this testing are shown in FIG. 10A, 10B, 11 and Table 2-2.

M-001 melanoma cells = test: Melanoma tumor progression in Zebra fish larvae; type: in vivo, zebrafish; details: Pembro +TILS, no axelopran, 72 hours of growth
Experimental: Zebra fish larvae (FIG. 3A) allow direct visualization of injected tumor cell growth and metastasis (collectively tumor progression) using fluorescently label tumor cells. At this developmental stage both the zebra fish immune system and gut microbiome are immature or lacking. Co-injection of exogenous tumor infiltrating lymphocytes (ex-TILS) allows the separate study of immune surveillance in the absence of a microbiome.
(§1) The toxicity screening period covered the first 72 hours of development. The efficacy evaluation of Axelopran was made using M-001 melanoma cells and matching TILs. Two-day old zebrafish embryos were subcutaneously injected into the perivitelline space with approximately 700 M-001 cells labelled with Dil red fluorescent dye and intravenously injected with TILs with or without pembrolizumab antibody. At the same time, MOR-antagonist test doses were added to the water. Following an additional 72 hours of further development, the fish were assayed for tumor growth (size of original tumor implant) and metastasis disseminated to the distal caudal venous plexus (CVP) three days after implantation.
The testing described above was repeated studying the effects of various doses of axelopran (0, 50 nM, 100 nM, 500 nM, and 1000 nM) alone, pembrolizumab alone, or pembrolizumab in combination with axelopran. The results of this testing are shown in FIG. 7, which depicts a summary of melanoma tumor progression (tumor size×#metastasis) in the presence of increasing axelopran concentrations or the checkpoint inhibitor pembrolizumab. For experiments using pembrolizumab, exogenous tumor-infiltrating lymphocytes (TILs) were also injected. The additional controls included the effect of TILs alone and with axelopran (500 nM) and pembrolizumab and TILs alone and with axelopran (500 nM). *=<0.05, **=<0.005, ***=<0.0005.

Zebra fish larvae = Zebra fish larvae mortality in combination therapy study; type: in vivo, zebrafish; details: TILs plus pembrolizumab
Experimental: as §1
For study investigating combination therapy, the Zebra fish larvae mortality was also investigated.

Molecule | angiogenesis (HUVEC cell tube formation) [1] | Breast cancer tumor progression index (tumor size × metastasis), Mean [3] | further results
C[N@+]1(CC2CC2)CC[C@]23c4c5ccc(O)c4O[C@H]2C(=O)CC[C@@]3(O)[C@H]1C5 [methylnaltrexone] | inhibit angiogenesis |  | 
C=CCN1CC[C@]23c4c5ccc(O)c4O[C@H]2[C@@H](OCCOCCOCCOCCOCCOCCOCCOC)CC[C@@]3(O)[C@H]1C5 [naloxegol] | inhibit angiogenesis |  | 
C=CCN1CC[C@]23c4c5ccc(O)c4O[C@H]2C(=O)CC[C@@]3(O)[C@H]1C5 [naloxone] |  |  | opioids-induced angiogenesis and angiogenesis by itself [2]: neither antagonizes opioids-induced angiogenesis nor induces angiogenesis by itself
bevacizumab: an anti-VEGF antibody |  | 0.28 fraction of negative control | 
pembrolizumab: an anti-PD1 antibody, checkpoint inhibitor |  | 0.54 fraction of negative control | Melanoma tumor progression index (tumor size × metastasis), Mean (M-001 melanoma cells): 4.83; Zebra fish larvae mortality (Zebra fish larvae): 63%
